Measured values from patent US20130143244A1, “SOX9 AS A MARKER FOR AGGRESSIVE CANCER” (ADMINISTRATORS OF THE TULANE EDUCATIONAL FUND, priority 2010, published 2013).
“Also recorded” adds a separate entry of the source.

Assays:
Format in all cases: cell-based, human
[1] = tested on: SOX9 localization in MDA-MB-231 cells; assay: Immunofluorescence microscopy of SOX9 localization; conditions: serum-deprived MDA-MB-231 cells, TSA 500 nM or LMB 5 ng/mL for 4 h, then 10% FBS
Description: Cells were grown on sterile glass coverslips in 6 well plates to 30%-40% confluence in their respective media, serum starved for the next 24 h treated with 1 nM all trans retinoic acid, 500 nM TSA or 5 ng/mL Leptomycin B for 4 h and then with 10% FBS for 2-3 h. Coverslips were washed three times in PBS and fixed in 4% paraformaldehyde for 30 minutes. After washing the coverslips again with PBS three times, they were blocked with 10% whole goat serum (Santa Cruz Biotechnology, Inc., Santa Cruz, Calif.) for thirty minutes. Cells were stained with anti-SOX9 (1:1,000 dil) antibody or anti-DDK tag antibody (OriGene Technologies, Inc., Rockville, Md.) and visualized using alexa 488-conjugated or 594-conjugated secondary (1:500 dilution) antibody (Molecular Probes®, Invitrogen Corp., Carlsbad, Calif.) as described previously (Chakravarty et al., Exp Biol Med (Maywood), 234:372-86 (2009)). For analysis, cells were visualized with a Nikon N300 microscope (Nikon Instruments Inc., Melville, N.Y.). Filter sets for FITC and DAPI were used to capture images that were then analyzed with Elements software. To establish that response to growth arrest signals was dependent on SOX9's cellular localization, both cell lines were also cultured on coverslips, serum starved for 24 h, and subsequently exposed to 10% FBS and stained with SOX9 antibody as described above.

[2] = tested on: MDA-MB-231 cells; assay: MTT cytotoxicity assay; conditions: for growth of MDA-MB-231 cells relative to control (cell viability by MTT): serum starved, increasing drug concentrations (TSA 50-500 nM, LMB 0.5-10 ng/ml), 48 h; for cell death: serum starved MDA-MB-231 cells, increasing drug concentrations
Description: MTT cytotoxicity assay: MDA-MB-231 or MCF7 cells were plated onto 96 well plates at a density of 2.5×10^3 cells/well. Cells were allowed to attach overnight and serum starved for the next 24 h. Following starvation, cells were treated with increasing concentration of Trichostatin A (50-500 nM) or Leptomycin B (0.5-10 ng/ml) and allowed to grow for next 24 h. At the end of 24 h drug treatment, media was supplemented with an equal volume of media with 20% FBS. An MTT assay was used to determine cell viability after exposure to test compounds for 48 h, including the 24 h of incubation with 10% FBS. Briefly, 10 μl of MTT reagent (5 mg/ml in PBS) was added to each well, the plate was incubated for 2-4 h to allow for the formation of formazan crystals, the media was aspirated from all wells and crystals were dissolved with 150 μl DMSO. The optical densities were measured at 540 nm on a BioTek uQuant microplate spectrophotometer (BioTek Instruments, Inc., Winooski, Vt.) and the percent of surviving cells was calculated with respect to control or untreated cells. For the modified MTT assay, the classical MTT reagent was replaced with WST-8, which produces a water soluble formazan dye upon bioreduction. For this assay, at the end of drug treatment, cells were incubated with 10 μl of WST-8 per 100 μl media/per well for 2-3 h. O.D. at 450 nm was measured to determine cell viability in each well.

[3] = tested on: p21, SOX9 and acetylated SOX9 in MDA-MB-231 cells; assay: Immunoblot and immunoprecipitation analysis of p21, SOX9 and acetylated SOX9; conditions: for p21 expression, arbitrary units normalized to actin level, change compared to cells grown in 10% FBS medium: TSA 500 nM or LMB 5 ng/ml for 4 h
Description: Asynchronous cell populations at a density of 50-60% in 6-well plates were serum deprived for 24 h, treated with TSA (500 nM), or Leptomycin B (5 ng/ml) for the next 4 h and then cultured in the presence of 10% FBS for 2-3 h before harvesting. Immunoblotting was performed by solubilizing cells in RIPA buffer, electrophoresing on 10% SDS-PAGE gels, incubating with primary antibodies for 1-2 h at room temperature, and detecting primary antibodies using HRP-conjugated secondary antibodies (1:30,000 dilution, Santa Cruz Biotechnology Inc.) and Amersham® ECU® (GE Healthcare Bio-Sciences Corp., Piscataway, N.J.) as described in Wang et al., Clin Cancer Res., 12:4755-65 (2006). Western blots were quantified by calculating an integrated density value (IDV) for each band using Bio-Rad's Gel Doc™ system and normalizing to the IDV of actin. For immunoprecipitation, total protein lysates were centrifuged at 14,000×g for 15 minutes at 4° C. Supernatants were then transferred to fresh centrifuge tubes and precleared with 50 μl of protein A Sepharose™ bead slurry (50%) per 1 ml of cell lysate. Incubation was continued at 4° C. for 30 minutes on a rocker or orbital shaker. Protein A beads were then collected by centrifugation at 14,000×g at 4° C. for 5 minutes. Protein concentration of the saved supernatant was determined after removing the beads. Approximately 500 μg to 1 mg of protein from each sample was transferred to fresh centrifuge tubes and diluted to 1 ml with ice cold PBS to reduce the concentration of the detergents in the buffer. The diluted lysates were incubated with 2 μg/mg protein anti-SOX9 antibody and rotated overnight at 4° C. Immuno complexes were captured with slurry of protein A-Sepharose™ CL-4B (Sigma) pre-washed with BSA through rotations for 1 h at 4° C. and washed three times with ice-cold modified RIPA buffer (Tris-HCl: 50 mM, pH 7.4, NP-40:1%, Na-deoxycholate: 0.25%, NaCl: 150 mM, EDTA: 1 mM, PMSF: 1 mM, NaF: 1 mM). Washed Sepharose™ beads were resuspended in 60 μl RIPA buffer with SDS dye and resolved on 10% SDS-PAGE gels. Blotted proteins were immunoprobed with antilysine antibody to detect the levels of acetylated SOX9.

[4] = tested on: MDA-MB-231 cells; assay: Gene expression profiling using RT2 Profiler PCR Array; conditions: MDA-MB-231 cells serum starved, TSA for 4 h, then FBS
Description: MDA-MB-231 cells with or without TSA treatment were harvested for total RNA using Trizol (Invitrogen) and reverse transcribed using RT^2 first strand kit from SABiosciences (Frederick, Md.). Real-Time PCR was performed according to the RT^2 Profiler PCR Array User manual (SABiosciences) using SYBR Green PCR Master Mix for the CFX96™ Real-Time PCR detection system from Bio-Rad (Bio-Rad Laboratories, Inc., Hercules, Calif.). The PAHS-090C PCR Array was repeated twice for each cDNA sample and the data were analyzed using Excel-based PCR Array Data Analysis Templates from SABiosciences.
The average Ct value of each gene obtained from duplicate experiments was used to calculate its expression value, which was expressed as 2−ΔCt (ΔCt=CtGOI−Ave CtHKG; GOI=gene of interest, HKG=housekeeping gene, Ave CtHKG=average Ct value of five housekeeping genes).

[5] = tested on: beta catenin reporter (TOP-flash/FOP-flash) in MDA-MB-231 cells; assay: TOP-flash / FOP-flash beta catenin reporter transfection experiment
Description: The Col2a1 reporter gene (Lefebvre et al., Mol Cell Biol, 17:2336-46 (1997)) was kindly provided by Prof. Benoit deCrombrugghe's laboratory. The beta catenin reporter set containing the plasmids TOP-flash and FOP-flash were made available by Prof. Randall Moon's laboratory.
For transfection, MDA-MB-231 cells were cultivated at 2.5×10^5 cells per well in 6-well plates. Twenty four hours later, transfection was performed using lipofectamine 2000 (Invitrogen) according the manufacturer's instruction. Cells in 6-well plates were transfected with 0.250 μg DNA of Col2a1 reporter or […] DNA of Top-flash or Fop-flash reporters, 10 ng of Renilla luciferase and 1.0 μg of wild type DDK tagged SOX9 per well. Top-flash or Fop-flash reporter transfected wells were treated with 15-ng/ml recombinant wnt3a protein (R&D Systems, Inc., Minneapolis, Minn.) after 24 h of transfection. All transfected cells were lysed directly in Promega's Dual Luciferase lysis buffer and collected with a cell scrape. Luciferase measurement was performed using a Optocomp I luminometer (MGM Instruments, Inc., Hamden, Conn.). Cellular localization of wild type DDK tagged SOX9 was detected using immunofluorescence as described above.

CCC(=C/[C@H](C)C/C=C/C(C)=C/[C@@H](C)C(=O)[C@@H](C)[C@H](O)[C@@H](C)C/C(C)=C/C(=O)O)/C=C/[C@@H]1OC(=O)C=C[C@@H]1C [LMB, leptomycin B]
nuclear localization of SOX9 [1]: unable to retain SOX9 in the nucleus; also recorded: unaffected | growth of MDA-MB-231 cells relative to control (cell viability by MTT) [2]: unaffected | cell death [2]: unable to retain SOX9 in the nucleus or induce cell death; also recorded: unaffected | p21 expression, arbitrary units normalized to actin level, change compared to cells grown in 10% FBS medium ([3]; western blot): 0.08 fold

CC(/C=C/C(=O)NO)=C\[C@@H](C)C(=O)c1ccc(N(C)C)cc1 [TSA, [R-(E,E)]-7-[4-(Dimethylamino)phenyl]-Nhydroxy-4,6-dimethyl-7-oxo-2,4-heptadienamide]
nuclear localization of SOX9 [1]: marked increase in nuclear SOX9 staining; also recorded: enhanced nuclear localization of SOX9 | growth of MDA-MB-231 cells relative to control (cell viability by MTT) [2]: decrease in proliferative potential; also recorded: markedly heightened sensitivity to growth inhibition | cell death [2]: dose dependent increase in cell death | gene expression profile with versus without TSA treatment [4]: several fold higher expression of genes involved in growth, development and differentiation and downregulation of migration, motility and cytoskeletal genes | acetylation of endogenous SOX9 protein ([3]; TSA 500 nM for 4 h, immunoprecipitation and anti acetylated lysine blot): enhanced acetylation of endogenous SOX9 protein | endogenous SOX9 protein expression, arbitrary units normalized to actin level, increase ([3]; TSA 500 nM for 4 h, western blot): 1.2 fold | p21 expression, arbitrary units normalized to actin level, change compared to cells grown in 10% FBS medium ([3]; western blot): 1.3 fold

B1: wnt3a: recombinant wnt3a protein (R&D Systems) used to activate wnt signaling (protein, UniProt P56704 19-352, looked up)
Protein Wnt-3a: SYPIWWSLAVGPQYSSLGSQPILCASIPGLVPKQLRFCRNYVEIMPSVAEGIKIGIQECQHQFRGRRWNCTTVHDSLAIFGPVLDKATRESAFVHAIASAGVAFAVTRSCAEGTAAICGCSSRHQGSPGKGWKWGGCSEDIEFGGMVSREFADARENRPDARSAMNRHNNEAGRQAIASHMHLKCKCHGLSGSCEVKTCWWSQPDFRAIGDFLKDKYDSASEMVVEKHRESRGWVETLRPRYTYFKVPTERDLVYYEASPNFCEPNPETGSFGTRDRTCNVSSHGIDGCDLLCCGRGHNARAERRREKCRCVFHWCCYVSCQECTRVYDVHTCK
induction of TOP-flash reporter, wnt3a treated versus untreated cells ([5]; MDA-MB-231 cells transfected with wild type (nuclear) SOX9, 15 ng/ml recombinant wnt3a): 22 fold | FOP-FLASH reporter activity, wnt3a treated versus untreated cells ([5]; MDA-MB-231 cells, mutated LEF-1/TCF-binding sites control vector): unchanged
